According to EP4813381A1, “PHARMACEUTICAL USE OF GUAIANE SESQUITERPENE DERIVATIVE” (Nanjing University Of Chinese Medicine, priority 2023, dated 2025):
Read-outs that look alike come from different tables or passages of the source.

Experiments:
CCR2 mRNA = CCR2 mRNA level in MDSCs (PCR); format: cell-based, mice; settings: CCR2 mRNA levels in MDSCs, 2 h
Description: Mice were euthanized by cervical dislocation and immersed in 75% ethanol solution for 5 min. Under sterile conditions, the tibia was removed, both ends of the bone were cut, and bone marrow was repeatedly flushed into a 15 mL centrifuge tube using a 1 mL syringe filled with culture medium. Centrifuge at 1600 rpm for 5 min to collect bone marrow cells. Wash twice with 1×PBS, then resuspend in RPMI 1640 complete medium containing GM-CSF (10 ng/mL) + IL-4 (10 ng/mL) and transfer to a cell culture dish to stimulate differentiation of bone marrow cells into MDSCs. Count cells and adjust density to 1 × 10^6 cells/mL in complete medium. Seed cells uniformly into 6-well plates at 2 mL per well. […] After incubation, collect cells into centrifuge tubes, centrifuge at 1600 rpm for 5 min, wash once with 1×PBS, and add 500 µL RNA extraction reagent to each tube. After centrifugation to obtain the pellet, add 20 µL DEPC-treated water to each tube to dissolve the pellet. Determine RNA concentration and reverse transcribe to cDNA. Add the cDNA, primers, and reverse transcriptase to a 96-well plate. Centrifuge at 4000 rpm for 5 min, then place in a PCR instrument for detection.

Hepa1-6 cells [1] = assay: Hepa1-6 mouse hepatocellular carcinoma subcutaneous xenograft model; format: in vivo, C57BL/6 mice; settings: Hepa1-6, oral 40 µmol/kg/d, 2 weeks
Description: Hepa1-6 cells were cultured and expanded in vitro. An appropriate amount of cells in the logarithmic growth phase was resuspended in a mixture of serum-free DMEM medium and Matrigel (1:1). under aseptic conditions to prepare a 2.5×10^6/100 µL cell suspension. A 100 µL aliquot of this suspension was injected subcutaneously into the left forearm axilla of male C57BL/6 mice. […] Daily oral administration was performed for 2 weeks. During the treatment period, mouse body weight and tumor diameter were measured daily. At the end of the experiment, mice were euthanized by cervical dislocation, and tumors were removed for weighing. Tumor volume (TV) was calculated using the formula: TV = 1/2 × a × b^2, where a represents the longest diameter of the tumor and b represents the shortest diameter.

4T1 cells = format: in vivo, BALB/c mice; settings: 4T1, oral 40 µmol/kg/day, 3 weeks
Description: 4T1 cells were cultured and expanded in vitro. […] A 100 µL aliquot of this suspension was injected subcutaneously into the left forelimb axilla of female BALB/c mice. […] Daily oral administration was performed for 3 weeks. During the treatment period, mouse body weight and tumor diameter were measured daily. At the end of the experiment, mice were euthanized by cervical dislocation, and tumors were removed for weighing. Tumor volume (TV) was calculated using the formula: TV = 1/2 × a × b^2, where a represents the longest diameter of the tumor and b represents the shortest diameter.

Hepa1-6 cells [2] = format: in vivo; settings: Hepa1-6 xenograft, male C57BL/6 mice, compound 20 alone, dose 1 (head µmol/kg/day; text 1 mg/kg/day), intraperitoneal daily, 2 weeks
Description: Hepa1-6 cells were cultured and expanded in vitro. An appropriate amount of cells in the logarithmic growth phase was resuspended in a mixture of serum-free DMEM medium and Matrigel (1:1). Under sterile conditions, prepare a cell suspension at 2.5 × 10^6 cells/100 µL. Using a syringe, inject 100 µL of the cell suspension subcutaneously into the left forelimb axilla of male C57BL/6 mice. […]. […] During the treatment period, mouse body weight and tumor diameter were measured daily. At the end of the experiment, mice were euthanized by cervical dislocation, and tumors were removed and weighed. Tumor volume (TV) was calculated using the formula: TV = 1/2 × a × b^2, where a represents the longest diameter of the tumor and b represents the shortest diameter.

[3] = test system: renal injury markers (Kim-1, Ngal), inflammatory factors (MCP-1, TNF-α); assay: Diabetic nephropathy (DKD) mice: Q-PCR of kidney tissue; format: in vivo, C57/BL6J mice; settings: kidney mRNA, gavage 10 mg/kg
Description: (§1) Production license number: SCXK(Su)2023-0009. […] Animals were acclimated for 7 days before use in experiments.
(§2) Administer streptozotocin (STZ, 50 mg/kg) via intraperitoneal injection for 5 consecutive days. After 72 hours, select mice with fasting blood glucose levels exceeding 16.7 mmol/L as model mice. […] Model mice were fed a high-fat diet (HFD) providing 60% of energy from fat for 8 weeks. After 8 weeks, gavage administration commenced.
(§3) Specimen Collection: One hour after the last drug administration, enucleate the eyeball to collect blood. Allow blood to stand at room temperature for 2 hours, then centrifuge at 3000 rpm for 20 minutes. Aspirate the serum, aliquot it, and store at -70 °C for future use. After blood collection, euthanize the mice by cervical dislocation. Open the abdominal cavity, remove the kidneys, and dissect away the perirenal fat and capsule. Store the tissue at -70 °C for future use.
Additional primer information is as follows: Table 24. Additional Information on Q-PCR Primers

diabetic nephropathy = assay: Diabetic nephropathy (STZ + HFD, DKD) mice: Scr and BUN; format: in vivo, C57/BL6J mice; settings: serum, 8 weeks
Description: as §1, §2, §3
Serum Creatinine (Scr) and Blood Urea Nitrogen (BUN) Assay: For each sample, 10 µL of serum was used for creatinine and urea level detection. Samples were added sequentially strictly following the kit instructions. After incubation at 37 °C, absorbance values were measured using an enzyme-linked immunosorbent assay (ELISA) reader. The concentration levels of each indicator were calculated based on the standard curve.

[4] = Safety evaluation of Compound 20: 30-day oral gavage in mice (body weight, activity status, survival rate)
[5] = Conversion rate of salt-form prodrugs to parent compound in HEPES buffer solution; format: physicochemical; settings: conversion to Compound 1, HEPES buffer pH 7.4, 37 °C
Summary of the method: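 Salt-form prodrug dissolved in water was mixed 1:1 with HEPES buffer pH 7.4 (or mouse serum) and incubated at 37°C. Aliquots were quenched with methanol and centrifuged, and supernatants taken at 1, 2, 4, 8 and 12 h were analysed by HPLC. Conversion was followed by peak areas.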

Question: For `C=C1C(=O)O[C@@H]2[C@@H]3[C@]4(CC[C@@]3(C)O)C[C@]4(C)CC[C@@H]12` [compound 1], which “CCR2 mRNA suppression rate in MDSCs (%)” value (CCR2 mRNA; 1 µM) is on record?
Answer: Its value is 35.2%.

Question: What about the “CCR2 mRNA suppression rate in MDSCs (%)” value (CCR2 mRNA; 10 µM) of the same compound?
Answer: Its value is 76.5%.

Question: Which results are given for `CN(C)C[C@@H]1C(=O)O[C@H]2[C@H]1CC[C@@]1(C)C[C@]13CC[C@@](C)(O)[C@H]23` [compound 20]?
Answer: Tumor Inhibition Rate (%) (Hepa1-6 cells [1]): 96.78%; Tumor weight (Hepa1-6 cells [1]): 0.03 ± 0.02 g; antitumor effects (4T1 cells): no significant antitumor effects; Tumor Inhibition Rate (%) (Hepa1-6 cells [2]): 72.37%; Tumor weight (Hepa1-6 cells [2]): 0.12 ± 0.09 g; Kim-1 [3]: 0.64±0.10; Mcp-1 [3]: 1.40±0.22; Ngal [3]: 0.96±0.13; Tnf-α [3]: 0.96±0.13; BUN (diabetic nephropathy; gavage 1 mg/kg): 37.01±2.50; Scr (diabetic nephropathy; gavage 1 mg/kg): 17.72±1.658; BUN (diabetic nephropathy; gavage 10 mg/kg): 19.71±1.22; Scr (diabetic nephropathy; gavage 10 mg/kg): 12.96±0.78; effect on mouse survival rate ([4]; 500 mg/kg and 1000 mg/kg, 30 days): no significant effect on the survival rate; time to recover to normal activity after administration ([4]; 500, 1000 mg/kg oral gavage): 1 to 2 h; effect on mouse activity status ([4]; 500, 1000 mg/kg oral gavage once daily, 30 days): relatively reduced activity and lethargy after each administration; effect on mouse body weight ([4]; 500, 1000 mg/kg oral gavage once daily, 30 days, female and male mice): no significant effect on the body weight; Survival rate ([4]; female C57BL/6 mice, 500 mg/kg oral gavage once daily for 30 days): 100%; Survival rate ([4]; female C57BL/6 mice, 1000 mg/kg oral gavage once daily for 30 days): 100%; Survival rate ([4]; male C57BL/6 mice, 500 mg/kg oral gavage once daily for 30 days): 100%; Survival rate ([4]; male C57BL/6 mice, 1000 mg/kg oral gavage once daily for 30 days): 100.00%; Release rate ([5]; 1 h): 6.2%; Release rate ([5]; 2 h): 13.8%; Release rate ([5]; 4 h): 21.7%; Release rate ([5]; 8 h): 44.3%; Release rate ([5]; 12 h): 59.1%
